# US8481750B2 (Boehringer Ingelheim International GmbH, priority 2009, dated 2013)
# Molecular target: LFA-1 binding to ICAM-1 (Homo sapiens, UniProt P05107+P20701)
# Test: Inhibition of LFA-1 binding to ICAM-1 (LFA-1/Biotin-sICAM-1 AlphaScreen molecular assay)
# Settings: highest compound concentration 1 μM in 1% DMSO, 37° C., 90 minutes
# Description: Assay to Determine Inhibition of LFA-1 Binding to ICAM-1
# This assay protocol is designed to study the direct antagonism, by a test compound, of the interaction of ICAM-1 with the Leukointegrin CD18/CD11a (LFA-1).
# The LFA-1/Biotin-sICAM-1 molecular assay measures the ability of test compounds to inhibit binding of LFA-1 to Biotinylated-sICAM using AlphaScreen technology (Ref: Wilson, J, Rossi, C P, Carboni, S, Fremaux, C, Perrin, D, Soto, C, Kosco-Vilbois, M, and Scheer, A: A Homogeneous 384-Well High-Throughput Binding Assay for a TNF Receptor Using Alphascreen Technology. J Biomol Screen 2003; 8:522-532) that uses TS2/4(anti-LFA-1)-custom conjugated AlphaLisa acceptor beads and streptavidin-coated donor beads from PerkinElmer. The assay was performed in white OptiPlates-384 in a volume of 60 μL using assay buffer (Dulbecco's PBS containing calcium and magnesium, 2 mM MgCl2, 0.1 mM PMSF, 0.1% BSA, pH 7.1). To each well, Biotin-sICAM was added followed by purified LFA-1 (in buffer of 50 mM triethylamine, 150 mM NaCl, 1% beta octylglucoside, 2 mM MgCl2 neutralized to pH with 1M Tris-HCl, pH 7.5). For compound testing, compound was added in 5 uL to the above in 25 uL. LFA-1 and Biotin-sICAM-1 were used at concentrations that would yield a signal to background ratio of 8-10. The highest concentration of compound was 1 μM in 1% DMSO. Positive controls were wells without compound containing LFA-1, while blanks were wells without both compound and LFA-1. Plates were mixed and incubated at 37° C. for 90 minutes. This was followed by addition of 15 μL/well TS2/4-congugated acceptor beads diluted in PBS containing 0.1% BSA for a final concentration of 10 μg/mL. The plates were mixed and incubated in the dark for 30 minutes at room temperature followed by addition of 15 μL/well streptavidin-coated donor beads diluted in PBS containing 0.1% BSA at a final concentration of 15 μg/mL. The plates were mixed and incubated in the dark for 60 minutes at room temperature and then read on an EnVision Multilabel Reader using AlphaScreen 384-well OptiPlate protocol.
# Chain of LFA-1 binding to ICAM-1 (P20701 26-1170): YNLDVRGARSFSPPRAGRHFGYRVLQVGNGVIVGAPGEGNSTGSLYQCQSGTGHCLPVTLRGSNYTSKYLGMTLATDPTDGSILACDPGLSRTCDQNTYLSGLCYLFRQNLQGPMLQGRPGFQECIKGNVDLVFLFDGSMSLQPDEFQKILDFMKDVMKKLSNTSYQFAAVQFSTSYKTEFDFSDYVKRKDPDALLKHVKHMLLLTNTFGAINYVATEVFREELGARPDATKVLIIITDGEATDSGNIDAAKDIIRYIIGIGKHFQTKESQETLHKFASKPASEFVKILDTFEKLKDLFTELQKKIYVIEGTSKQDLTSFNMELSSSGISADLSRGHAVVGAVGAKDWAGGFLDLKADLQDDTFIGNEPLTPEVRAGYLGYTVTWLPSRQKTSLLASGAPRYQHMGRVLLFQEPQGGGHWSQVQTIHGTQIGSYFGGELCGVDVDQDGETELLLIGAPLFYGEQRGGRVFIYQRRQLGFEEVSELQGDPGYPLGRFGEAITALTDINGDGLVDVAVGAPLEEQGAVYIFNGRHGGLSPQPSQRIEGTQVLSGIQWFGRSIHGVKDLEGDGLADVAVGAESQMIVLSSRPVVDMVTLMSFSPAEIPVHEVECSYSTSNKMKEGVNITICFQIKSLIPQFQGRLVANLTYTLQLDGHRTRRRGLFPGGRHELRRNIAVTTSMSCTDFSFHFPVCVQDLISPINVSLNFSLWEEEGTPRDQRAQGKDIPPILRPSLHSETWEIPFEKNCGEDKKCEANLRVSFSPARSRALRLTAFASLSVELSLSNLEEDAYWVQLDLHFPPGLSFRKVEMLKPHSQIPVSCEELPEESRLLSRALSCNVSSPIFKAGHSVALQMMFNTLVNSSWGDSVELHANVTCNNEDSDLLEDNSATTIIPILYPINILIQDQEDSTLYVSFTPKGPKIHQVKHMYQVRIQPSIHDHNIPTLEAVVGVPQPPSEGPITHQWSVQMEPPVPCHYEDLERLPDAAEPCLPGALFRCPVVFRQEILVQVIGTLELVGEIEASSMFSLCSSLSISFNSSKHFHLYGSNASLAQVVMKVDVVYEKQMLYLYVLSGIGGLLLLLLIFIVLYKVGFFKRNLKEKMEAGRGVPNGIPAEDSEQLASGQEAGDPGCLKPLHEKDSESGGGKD
# Chain of LFA-1 binding to ICAM-1 (P05107 23-769): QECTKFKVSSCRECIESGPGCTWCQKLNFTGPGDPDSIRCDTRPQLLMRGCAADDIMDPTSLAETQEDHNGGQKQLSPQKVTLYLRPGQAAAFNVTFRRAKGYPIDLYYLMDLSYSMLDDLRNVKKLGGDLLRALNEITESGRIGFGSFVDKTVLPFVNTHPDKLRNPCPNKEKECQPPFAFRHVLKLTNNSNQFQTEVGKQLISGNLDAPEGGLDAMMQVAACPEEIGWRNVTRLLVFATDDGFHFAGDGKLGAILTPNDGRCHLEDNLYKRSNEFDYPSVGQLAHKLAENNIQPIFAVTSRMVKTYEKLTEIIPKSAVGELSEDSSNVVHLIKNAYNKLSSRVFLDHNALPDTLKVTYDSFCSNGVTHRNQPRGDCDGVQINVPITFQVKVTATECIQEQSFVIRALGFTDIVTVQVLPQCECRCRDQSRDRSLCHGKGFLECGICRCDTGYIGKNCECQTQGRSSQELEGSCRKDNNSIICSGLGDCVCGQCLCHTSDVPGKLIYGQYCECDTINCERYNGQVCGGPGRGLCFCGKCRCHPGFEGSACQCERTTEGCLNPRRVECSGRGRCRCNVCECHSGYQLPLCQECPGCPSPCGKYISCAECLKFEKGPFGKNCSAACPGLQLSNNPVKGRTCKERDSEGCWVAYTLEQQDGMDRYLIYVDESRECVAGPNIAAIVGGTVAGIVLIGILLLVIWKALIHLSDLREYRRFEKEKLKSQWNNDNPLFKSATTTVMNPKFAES
row,IC50,SMILES
1,4500 pM,CC(=O)N(C)C1CCN(C(=O)c2cccc(C3(NC(=O)C4(NC(=O)c5cnc6n5[C@](C)(Cc5ccc(C#N)cc5)C(=O)N6c5cc(Cl)cc(Cl)c5)CC4)CC3)n2)C1 (stereo partly drawn) [compound 45]
2,780 pM,CC(NC(=O)c1ccc(C2(NC(=O)C3(NC(=O)c4cnc5n4[C@](C)(Cc4ccc(C#N)cc4)C(=O)N5c4cc(Cl)cc(Cl)c4)CC3)CC2)nc1)c1ccncc1 (stereo partly drawn) [compound 46]
3,3900 pM,CC(NC(=O)c1cccc(C2(NC(=O)C3(NC(=O)c4cnc5n4[C@](C)(Cc4ccc(C#N)cc4)C(=O)N5c4cc(Cl)cc(Cl)c4)CC3)CC2)n1)c1cccnc1 (stereo partly drawn) [compound 47]
4,2400 pM,C[C@@]1(Cc2ccc(C#N)cc2)C(=O)N(c2cc(Cl)cc(Cl)c2)c2ncc(C(=O)NC3(C(=O)NC4(c5cccc(C(=O)N6CC[C@@H](O)C6)n5)CC4)CC3)n21 [compound 48]
5,560 pM,C[C@H](CO)NC(=O)c1ccnc(C2(NC(=O)C3(NC(=O)c4cnc5n4[C@](C)(Cc4ccc(C#N)cc4)C(=O)N5c4cc(Cl)cc(Cl)c4)CC3)CC2)c1 [compound 49]
6,970 pM,C[C@@]1(Cc2ccc(C#N)cc2)C(=O)N(c2cc(Cl)cc(Cl)c2)c2ncc(C(=O)NC3(C(=O)NC4(c5ccc(C(=O)NCc6ccncc6)cn5)CC4)CC3)n21 [compound 50]
7,580 pM,C[C@@]1(Cc2ccc(C#N)cc2)C(=O)N(c2cc(Cl)cc(Cl)c2)c2ncc(C(=O)NC3(C(=O)NC4(c5cccc(C(=O)N6CC(O)C6)n5)CC4)CC3)n21 [compound 51]
8,2400 pM,C[C@@H](NC(=O)c1ccnc(C2(NC(=O)C3(NC(=O)c4cnc5n4[C@](C)(Cc4ccc(C#N)cc4)C(=O)N5c4cc(Cl)cc(Cl)c4)CC3)CC2)c1)c1ccccc1 [compound 53]
9,1200 pM,CC(=O)NC1CCN(C(=O)c2ccnc(C3(NC(=O)C4(NC(=O)c5cnc6n5[C@](C)(Cc5ccc(C#N)cc5)C(=O)N6c5cc(Cl)cc(Cl)c5)CC4)CC3)c2)C1 (stereo partly drawn) [compound 54]
10,600 pM,C[C@@]1(Cc2ccc(C#N)cc2)C(=O)N(c2cc(Cl)cc(Cl)c2)c2ncc(C(=O)NC3(C(=O)NC4(c5ccc(C(=O)N6CCNCC6)cn5)CC4)CC3)n21 [compound 56]
11,820 pM,C[C@@]1(Cc2ccc(C#N)cc2)C(=O)N(c2cc(Cl)cc(Cl)c2)c2ncc(C(=O)NC3(C(=O)NC4(c5cccc(C(=O)NCCC(N)=O)n5)CC4)CC3)n21 [compound 57]
12,700 pM,C[C@@]1(Cc2ccc(C#N)cc2)C(=O)N(c2cc(Cl)cc(Cl)c2)c2ncc(C(=O)NC3(C(=O)NC4(c5cc(C(=O)N6CCOCC6)ccn5)CC4)CC3)n21 [compound 58]
13,1800 pM,CN(C)C1CCN(C(=O)c2ccc(C3(NC(=O)C4(NC(=O)c5cnc6n5[C@](C)(Cc5ccc(C#N)cc5)C(=O)N6c5cc(Cl)cc(Cl)c5)CC4)CC3)nc2)C1 (stereo partly drawn) [compound 61]
14,1100 pM,CN(C)CCNC(=O)c1ccnc(C2(NC(=O)C3(NC(=O)c4cnc5n4[C@](C)(Cc4ccc(C#N)cc4)C(=O)N5c4cc(Cl)cc(Cl)c4)CC3)CC2)c1 [compound 62]
15,1700 pM,CN(C)CCNC(=O)c1cccc(C2(NC(=O)C3(NC(=O)c4cnc5n4[C@](C)(Cc4ccc(C#N)cc4)C(=O)N5c4cc(Cl)cc(Cl)c4)CC3)CC2)n1 [compound 63]
16,340 pM,C[C@@]1(Cc2ccc(C#N)cc2)C(=O)N(c2cc(Cl)cc(Cl)c2)c2ncc(C(=O)NC3(C(=O)NC4(c5cc(C(=O)NCc6ccncc6)ccn5)CC4)CC3)n21 [compound 64]
17,2100 pM,C[C@@H](NC(=O)c1ccc(C2(NC(=O)C3(NC(=O)c4cnc5n4[C@](C)(Cc4ccc(C#N)cc4)C(=O)N5c4cc(Cl)cc(Cl)c4)CC3)CC2)nc1)c1ccccc1 [compound 65]
18,280 pM,C[C@@]1(Cc2ccc(C#N)cc2)C(=O)N(c2cc(Cl)cc(Cl)c2)c2ncc(C(=O)NC3(C(=O)NC4(c5ccc(C(=O)NC(CO)CO)cn5)CC4)CC3)n21 [compound 66]
19,2600 pM,C[C@@]1(Cc2ccc(C#N)cc2)C(=O)N(c2cc(Cl)cc(Cl)c2)c2ncc(C(=O)NC3(C(=O)NC4(c5cccc(C(=O)N6CCC[C@@H]6C(N)=O)n5)CC4)CC3)n21 [compound 67]
20,500 pM,CC(=O)NCCNC(=O)c1cccc(C2(NC(=O)C3(NC(=O)c4cnc5n4[C@](C)(Cc4ccc(C#N)cc4)C(=O)N5c4cc(Cl)cc(Cl)c4)CC3)CC2)n1 [compound 68]
21,470 pM,CC(C)(O)CNC(=O)c1ccnc(C2(NC(=O)C3(NC(=O)c4cnc5n4[C@](C)(Cc4ccc(C#N)cc4)C(=O)N5c4cc(Cl)cc(Cl)c4)CC3)CC2)c1 [compound 69]

row,IC50,SMILES
1,740 pM,C[C@@]1(Cc2ccc(C#N)cc2)C(=O)N(c2cc(Cl)cc(Cl)c2)c2ncc(C(=O)NC3(C(=O)NC4(c5ccc(C(=O)NC6CCC6)cn5)CC4)CC3)n21 [compound 71]
2,450 pM,C[C@@]1(Cc2ccc(C#N)cc2)C(=O)N(c2cc(Cl)cc(Cl)c2)c2ncc(C(=O)NC3(C(=O)NC4(c5cc(C(=O)NCc6cccnc6)ccn5)CC4)CC3)n21 [compound 72]
3,370 pM,CC(O)CNC(=O)c1ccc(C2(NC(=O)C3(NC(=O)c4cnc5n4[C@](C)(Cc4ccc(C#N)cc4)C(=O)N5c4cc(Cl)cc(Cl)c4)CC3)CC2)nc1 (stereo partly drawn) [compound 73]
4,1400 pM,CC(O)CNC(=O)c1cccc(C2(NC(=O)C3(NC(=O)c4cnc5n4[C@](C)(Cc4ccc(C#N)cc4)C(=O)N5c4cc(Cl)cc(Cl)c4)CC3)CC2)n1 (stereo partly drawn) [compound 74]
5,2200 pM,COCCNC(=O)c1cccc(C2(NC(=O)C3(NC(=O)c4cnc5n4[C@](C)(Cc4ccc(C#N)cc4)C(=O)N5c4cc(Cl)cc(Cl)c4)CC3)CC2)n1 [compound 75]
6,790 pM,C[C@@]1(Cc2ccc(C#N)cc2)C(=O)N(c2cc(Cl)cc(Cl)c2)c2ncc(C(=O)NC3(C(=O)NC4(c5cc(C(=O)NCc6ccco6)ccn5)CC4)CC3)n21 [compound 76]
7,680 pM,C[C@@]1(Cc2ccc(C#N)cc2)C(=O)N(c2cc(Cl)cc(Cl)c2)c2ncc(C(=O)NC3(C(=O)NC4(c5ccc(C(=O)NCCN)cn5)CC4)CC3)n21 [compound 78]
8,670 pM,C[C@@]1(Cc2ccc(C#N)cc2)C(=O)N(c2cc(Cl)cc(Cl)c2)c2ncc(C(=O)NC3(C(=O)NC4(c5cc(C(=O)NCc6ccccn6)ccn5)CC4)CC3)n21 [compound 79]
9,990 pM,C[C@@]1(Cc2ccc(C#N)cc2)C(=O)N(c2cc(Cl)cc(Cl)c2)c2ncc(C(=O)NC3(C(=O)NC4(c5cc(C(=O)N6CCCC(CO)C6)ccn5)CC4)CC3)n21 (stereo partly drawn) [compound 80]
10,1500 pM,C[C@@]1(Cc2ccc(C#N)cc2)C(=O)N(c2cc(Cl)cc(Cl)c2)c2ncc(C(=O)NC3(C(=O)NC4(c5ccc(C(=O)NCc6ccccc6)cn5)CC4)CC3)n21 [compound 81]
11,1300 pM,C[C@@H](NC(=O)c1cccc(C2(NC(=O)C3(NC(=O)c4cnc5n4[C@](C)(Cc4ccc(C#N)cc4)C(=O)N5c4cc(Cl)cc(Cl)c4)CC3)CC2)n1)C(N)=O [compound 83]
12,530 pM,C[C@@]1(Cc2ccc(C#N)cc2)C(=O)N(c2cc(Cl)cc(Cl)c2)c2ncc(C(=O)NC3(C(=O)NC4(c5ccc(C(=O)NCCc6cccnc6)cn5)CC4)CC3)n21 [compound 84]
13,340 pM,C[C@@]1(Cc2ccc(C#N)cc2)C(=O)N(c2cc(Cl)cc(Cl)c2)c2ncc(C(=O)NC3(C(=O)NC4(c5ccc(C(=O)N6CCC(CO)CC6)cn5)CC4)CC3)n21 [compound 85]
14,560 pM,CC(C)(CO)NC(=O)c1ccc(C2(NC(=O)C3(NC(=O)c4cnc5n4[C@](C)(Cc4ccc(C#N)cc4)C(=O)N5c4cc(Cl)cc(Cl)c4)CC3)CC2)nc1 [compound 86]
15,980 pM,C[C@@]1(Cc2ccc(C#N)cc2)C(=O)N(c2cc(Cl)cc(Cl)c2)c2ncc(C(=O)NC3(C(=O)NC4(c5cc(C(=O)N6CC(O)C6)ccn5)CC4)CC3)n21 [compound 87]
16,1400 pM,C[C@@]1(Cc2ccc(C#N)cc2)C(=O)N(c2cc(Cl)cc(Cl)c2)c2ncc(C(=O)NC3(C(=O)NC4(c5cc(C(=O)N6CCN(S(C)(=O)=O)CC6)ccn5)CC4)CC3)n21 [compound 89]
17,290 pM,C[C@@]1(Cc2ccc(C#N)cc2)C(=O)N(c2cc(Cl)cc(Cl)c2)c2ncc(C(=O)NC3(C(=O)NC4(c5ccc(C(=O)N6CCC6)cn5)CC4)CC3)n21 [compound 90]
18,810 pM,C[C@@H](CO)NC(=O)c1ccc(C2(NC(=O)C3(NC(=O)c4cnc5n4[C@](C)(Cc4ccc(C#N)cc4)C(=O)N5c4cc(Cl)cc(Cl)c4)CC3)CC2)nc1 [compound 91]
19,1300 pM,C[C@@]1(Cc2ccc(C#N)cc2)C(=O)N(c2cc(Cl)cc(Cl)c2)c2ncc(C(=O)NC3(C(=O)NC4(c5cccc(C(=O)NCc6ccccn6)n5)CC4)CC3)n21 [compound 92]
20,620 pM,C[C@@]1(Cc2ccc(C#N)cc2)C(=O)N(c2cc(Cl)cc(Cl)c2)c2ncc(C(=O)NC3(C(=O)NC4(c5ccc(C(=O)NCCc6ccccn6)cn5)CC4)CC3)n21 [compound 93]
21,1500 pM,C[C@@]1(Cc2ccc(OC(F)(F)F)cc2)C(=O)N(c2cc(Cl)cc(Cl)c2)c2ncc(C(=O)NC3(C(=O)NC4(c5ccc(C(N)=O)cn5)CC4)CC3)n21 [compound 94]
